“Also recorded” adds a separate entry of the source.
Columns and labels:
IL-1β = IL-1β release, AlphaLISA; type: cell-based, mouse; conditions: inflammasome experiment supernatants, 4 experiments
Method: (§1) Cytokines were analyzed by EVE Technologies (https://www.evetechnologies.com) using the Luminex 31-Plex kit. Cell culture supernatants were diluted twice with PBS and provided in biological triplicates to EVE Technologies via overnight shipment in dry ice. Individual IL-1β and TNFɑ assays were performed using Perkin Elmer AlphaLISA kits, as per Supplementary Table S1 and vendor instructions.
(§2) BMDMs or J774 cells were plated in 48-well plates at 2 x 10^5 per well. Next day, the medium was changed to Opti-MEM (100 μL per well) without serum and the cells were allowed to equilibrate for 3 h. Next, the cells were pretreated with the indicated concentrations of nanoparticles or controls for 3 h followed by the addition of LPS to some wells to the final LPS concentration of 50 ng/mL. LPS priming continued for another 2 h, following which DMSO (vehicle), Nigericin (5 μM) or adenosine triphosphate (ATP) (1 mM) were added to some wells. Cells were incubated for an additional 30 min and cell culture supernatants were collected on ice. Cells were washed with cold PBS once and lysed/processed as described in immunoblotting section. The supernatants (90 μL) were mixed with 10 μL of 10x SDS loading buffer (10% SDS, 10% Ficoll 400, 0.5 M Tris pH 6.8, 0.5 M DTT, and 0.001% bromophenol blue) and heat-denatured as described in the immunoblotting section. […]

BMDMs [1] = experiment: GSH/GSSG assay in LPS-primed BMDMs; type: cell-based, mouse; conditions: LPS-primed (100 ng/mL) BMDMs, 5 µM CCTV vs vehicle, 8 experiments
Method: GSH /GSSG, lactate dehydrogenase (LDH) and DCFDA assays were performed according to the manufacturer's instructions.

[2] = system: bone marrow derived macrophages (BMDMs); experiment: Immunoblot of IL-1β and HO-1 in LPS-stimulated BMDMs; type: cell-based, mouse
Method: (§3) Immunoblotting was performed as previously described with the following modifications. Briefly, cell lysates were obtained in SDS lysis buffer consisting of 2% SDS, 50 mM Tris-HCl (pH 6.8), 100 mM DTT, 5% Ficoll 400, 0.0001% bromophenol blue and a cocktail of protease inhibitors. Lysates were sonicated on ice before heating at 97 °C for 7 min to completely denature the protein. Protein concentration was determined using IR spectroscopy (which is insensitive to high SDS and DTT concentrations) with a Millipore DirectDetect spectrometer. Lysates were equally loaded at 10-15 µg per lane on BioRad TGX Criterion gels (4-15%) and resolved at 300 V in Tris-Glycine running buffer. Proteins were transferred on nitrocellulose membranes using the BioRad TransBlot turbo according to the manufacturer's instructions. Membranes were blocked in fish serum (Aqua Block) or 5% nonfat dry milk in TBS-T (0.05% Tween 20) and probed overnight at 4 °C with primary antibodies as indicated in Supplementary Table S1. The membranes were washed in TBS-T and incubated with secondary antibodies for 1 h at room temperature. After washing, semi-quantitative visualization of the proteins of interest was enabled using an enhanced chemiluminescence reagent as previously described and the Azure C400 western blot imaging system.
N-acetylcysteine (NAC) served as an antioxidant control. β-Actin was used as a loading control. B) Gene expression analysis in RAW cells treated with 1 µM of vehicle, CCTV and VTCC (peptide nanoparticle control) for 24 h. mRNA expression of mannose receptor (Mrc1), nitric oxide synthase 2 (Nos2), tumor necrosis factor (Tnf), interleukin-1beta (Il1b), and interleukin-6 (Il6) were analyzed. C) Cytokines in cell culture supernatants were analyzed as indicated. […] Metrics of chemotactic behaviour i.e. velocity, distance travelled, and chemotactic index were quantified as presented in bar graphs. […] P values are calculated by t-test and error bars are standard errors of three independent experiments.

BMDMs [3] = experiment: CCL2-induced actin polymerization in BMDMs; type: cell-based; conditions: 6 h pre-treatment, 500 nM recombinant mouse CCL2; 5 µM; phalloidin staining
Method: Next, cells were washed with PBS and recombinant mouse CCL2 was added to a final concentration of 500 nM. Then, cells were incubated for varying times (indicated in Figure 2G), after which they were immediately placed on ice and washed 3 times with cold PBS. Actin polymerization was then visualized following staining with phalloidin Alexa Fluor 633, according to the manufacturer's instructions.

[4] = system: cytokines in cell culture supernatants; experiment: Cytokine analysis, Luminex panel; type: cell-based, mouse
Method: as §1

NLRP3 inflammasome = experiment: Inflammasome activation immunoblot in BMDMs; type: cell-based, mouse; conditions: LPS 50 ng/mL, nigericin 5 µM
Method: as §3
as §2, with “section.” for “section. The supernatants (90 μL) were mixed with 10 μL of 10x SDS loading buffer (10% SDS, 10% Ficoll 400, 0.5 M Tris pH 6.8, 0.5 M DTT, and 0.001% bromophenol blue) and heat-denatured as described in the immunoblotting section.”

TNFɑ = TNFɑ release, AlphaLISA; type: cell-based, mouse; conditions: inflammasome experiment supernatants, 4 experiments
Method: as §1, §2

CCR2 = experiment: Uptake in macrophages from CCR2 knockout mice; type: cell-based, mouse; conditions: CCR2 KO vs wild-type, carboxyfluorescein-labeled
Method: Supplementary Figure S6. A) Separate channels for main manuscript Figure 1B.
Uptake of carboxyfluorescein-labeled CCTV or VTCC in cultured bone marrow derived macrophages from B)
CCR2 knockout (KO, B6.129S4-Ccr2 /J) or wild-type (WT) mice; C) wild-type mouse-derived macrophages
pre-treated (6 h) with CCR2 inhibitor BMS CCR2 22 (10 nM) or DMSO as vehicle control. C)
(1 picture or pasted object on this page, not shown here)

CCTV
IL-1β release (IL-1β): confirmed the actions of CCTV
GSH levels (BMDMs [1]): unable to restore GSH levels; also recorded: unaffected
GSSG levels (BMDMs [1]): unable to restore GSH levels or reduce GSSG; also recorded: unaffected
HO-1 levels at high concentration ([2]; 50 µM): the effect was reversed
HO-1 levels (immunoblot) ([2]; LPS 100 ng/mL, 16 h): reduced
IL-1β production (immunoblot) ([2]; LPS 100 ng/mL, 16 h): dose-dependent reduction of IL-1β
actin polymerization (BMDMs [3]): significantly inhibited actin polymerization
levels of 14 cytokines in supernatants ([4]; Luminex inflammation array): did not detect significant differences among 14 different cytokines
IL-6 cytokine ([4]; not statistically significant): trend in CCTV-induced downregulation
IL-12p40 cytokine ([4]; not statistically significant): though to a lesser extent
IL-1β and its mature form in supernatants (immunoblot) (NLRP3 inflammasome): dose-dependently inhibited the production of IL-1β and its mature form
NLRP3 protein (NLRP3 inflammasome): markedly decreased, but only in nigericin-stimulated, CCTV-treated cells
cleaved caspase 1 levels (NLRP3 inflammasome): reduced
TNFɑ release (TNFɑ): completely unaffected
uptake in CCR2 knockout macrophages (CCR2): drastically reduced

— publication PMC6838142, “Nano-Antagonist Alleviates Inflammation and Allows for MRI of Atherosclerosis” (Nanotheranostics, 2019)
